In patent US6465655B1, “Antibody to and assay for peptide linked-pyridinoline as indicator of bone resorption level” (Serex, Inc., priority 1997, dated 2002):

System: Serex 51A93
Assay: ELISA plate inhibition studies of Serex 51A93 by calibrators (Osteomark BCE, Metra free pyridinoline)
Type: binding
Experimental: The immunoreactivities of 51A93 and 1H11 with the calibrators and ELISA plates in the Osteomark kit and Pyrilinks Metra kit were compared. Two studies were carried out using ELISA plate assays.
In the first study, BCE calibrators from the Osteomark Kit and free pyridinoline (Pyd) from Metra were tested at different concentrations to see if either of them inhibits 51A93. Abbreviations are BCE, bone collagen equivalents; %Bo, percent bound at 0 concentration of analyte (as analyte in sample binds to antibody, the percent Bo decreases).

For `N[C@@H](CC[C@@H](O)C[n+]1cc(O)c(C[C@H](N)C(=O)O)c(CC[C@H](N)C(=O)O)c1)C(=O)[O-]` [Pyd, pyridinoline], which “% B0” value (Pyd 0.001 mg/ml) is on record?
The value was 87%.

And the “A 450” value (Pyd 0.001 mg/ml)?
Its value is 1,302.

What about the “% B0” value (Pyd 0.01 mg/ml) of the same molecule?
Its value is 85%.

And the “A 450” value (Pyd 0.01 mg/ml)?
Its value is 1,275.

What about the “% B0” value (Pyd 0.1 mg/ml) of the same molecule?
The value was 89%.

What about the “A 450” value (Pyd 0.1 mg/ml) of the same molecule?
The value was 1,327.

What about the “% B0” value (Pyd 1 mg/ml) of the same molecule?
The value was 83%.

And the “A 450” value (Pyd 1 mg/ml)?
The value was 1,249.

What about the “inhibition of Mab 51A93 by calibrator” value (even at high levels) of the same molecule?
The value was “slightly inhibited”.
